Values after ≈ are worked out from the molar mass of the structure shown. Where two headings read alike, the source gives them in different places.

What all share (assay type): cell-based
For test [1], the system named is Pseudomonas aeruginosa 99.
The test system of test [2] is Pseudomonas aeruginosa ROS134/PU21. To be noted: ROS134/PU21, 18 h.
Test [3] relates to Escherichia coli K-12 ML 1629. To be noted: K12ML1629, nutrient agar, 37° C., 18 hours.
Test [4] deals with Escherichia coli K-12 ML 1630. To be noted: K12ML1630, nutrient agar, 37° C., 18 hours.
Test [5] concerns Staphylococcus aureus Smith. To be noted: nutrient agar, 37° C., 18 hours.
A further test has as its system Escherichia coli W677. To be noted: nutrient agar, 37° C., 18 hours.
The test system of a further test is Providencia Pv 16. To be noted: PV16, nutrient agar, 37° C., 18 hours.
A further test deals with Serratia 4. To be noted: nutrient agar, 37° C., 18 hours.
Test [6] concerns Pseudomonas aeruginosa PST1. To be noted: nutrient agar, 37° C., 18 hours.
In test [7] the test system is Salmonella enteritidis 1891. To be noted: Salmonella enterica, nutrient agar, 37° C., 18 hours.
For test [8], the system named is Pseudomonas aeruginosa GN315. To be noted: nutrient agar, 37° C., 18 hours.
The subject of test [9] is kanamycin-resistant bacteria. The experiment in a line: antibacterial activity against kanamycin-resistant bacteria (in words). To be noted: even with the kanamycin-resistant bacteria.
Test [10] relates to Escherichia coli JR66/W677. To be noted: JR66/W677, 18 h.
In test [11] the test system is Pseudomonas aeruginosa A3.
In another test the test system is bacterial strains. In words: antibacterial activity (in words).
[12] abbreviates: Pseudomonas aeruginosa, 99, 18 h.

As a reminder, the MIC is the lowest concentration that inhibits growth of the organism. In the case of `C[C@@H]1C[C@H](N)[C@@H](O)[C@@H](O[C@@H]2C[C@H](O[C@@H]3CCC[C@@H](CN)O3)[C@@H](N)C[C@H]2NC(=O)[C@@H](O)CCN)O1` [Hexadeoxyamikacin, 1-N-[(S)-4-amino-2-hydroxybutyryl]-5,2',3',4',4",6"-hexadeoxykanamycin], the minimum inhibitory concentration (MIC) in test [1] (setting [12]) is 50 µg/mL (≈ 102 µM); in test [2], above 100 µg/mL; in [3], 1.56 µg/mL (≈ 3.19 µM); in test [4], 3.13 µg/mL (≈ 6.39 µM); in [5], 1.56 µg/mL (≈ 3.19 µM); against Escherichia coli W677, 0.78 µg/mL (≈ 1.59 µM). The MIC is 3.13 µg/mL (≈ 6.39 µM) against Providencia Pv 16; 12.5 µg/mL (≈ 25.5 µM) in the test with Serratia 4; 50 µg/mL (≈ 102 µM) in [6]; 3.13 µg/mL (≈ 6.39 µM) in [7]; above 100 µg/mL in test [8]; 3.13 µg/mL (≈ 6.39 µM) in test [10]. Besides, inhibition of growth in test [11] (A3, 18 h) (MIC) required 0.78 µg/mL (≈ 1.59 µM). Also, in test [9], the “antibacterial activity compared with amikacin” value is listed as “antibacterial activity as high as that of amikacin”.

With `C[C@@H]1C[C@H](N)[C@@H](O)[C@@H](O[C@@H]2C[C@H](O[C@@H]3CCC[C@@H](CN)O3)[C@@H](N)C[C@H]2N)O1` [Hexadeoxykanamycin, 5,2',3',4',4",6"-hexadeoxykanamycin], the minimal inhibitory concentration (MIC) in test [1] (setting [12]) was above 100 µg/mL; in test [2] it was above 100 µg/mL; in [3], 25 µg/mL (≈ 64.3 µM); in test [4], 25 µg/mL (≈ 64.3 µM); in [5], 0.78 µg/mL (≈ 2.01 µM); in the test on Escherichia coli W677, 1.56 µg/mL (≈ 4.02 µM). Also, the minimal inhibitory concentration (MIC) in the test with Providencia Pv 16 was 12.5 µg/mL (≈ 32.2 µM); with Serratia 4 it was 25 µg/mL (≈ 64.3 µM); in test [6], above 100 µg/mL; in test [7] it was 1.56 µg/mL (≈ 4.02 µM); in test [8], above 100 µg/mL; in test [10], above 100 µg/mL. In [11] (A3, 18 h), this compound registered a minimal inhibitory concentration (MIC) of 3.13 µg/mL (≈ 8.06 µM). Moreover, the antibacterial activity entry in the test on bacterial strains is given as “antibacterial activity as high as that of the parent kanamycin A”.

Consider `NCC[C@H](O)C(=O)N[C@@H]1C[C@H](N)[C@@H](O[C@H]2O[C@H](CN)[C@@H](O)[C@H](O)[C@H]2O)[C@H](O)[C@H]1O[C@H]1O[C@H](CO)[C@@H](O)[C@H](N)[C@H]1O` [Amikacin, 1-N-[(S)-4-amino-2-hydroxybutyryl]kanamycin A, reference compound], for which the MIC was 6.25 µg/mL (≈ 10.7 µM) in test [1] (Pseudomonas aeruginosa, 99, nutrient agar, 37° C., 18 hours, read-out: MIC); 100 µg/mL (≈ 171 µM) in test [2]; 1.56 µg/mL (≈ 2.66 µM) in [3]; 3.13 µg/mL (≈ 5.34 µM) in test [4]; 0.39 µg/mL (≈ 0.666 µM) in test [5]; 0.78 µg/mL (≈ 1.33 µM) in the test on Escherichia coli W677. The MIC with Providencia Pv 16 worked out at 1.56 µg/mL (≈ 2.66 µM); with Serratia 4, 3.13 µg/mL (≈ 5.34 µM); in test [6] it was 12.5 µg/mL (≈ 21.3 µM); in test [7] it was 1.56 µg/mL (≈ 2.66 µM); in test [8], 25 µg/mL (≈ 42.7 µM); in test [10], 3.13 µg/mL (≈ 5.34 µM). The MIC in [11] (A3, nutrient agar, 37° C., 18 hours, read-out: MIC) was below 0.2 µg/mL.

The values above are taken from patent publication US4486419A, “5,2',3',4',4",6"-Hexadeoxykanamycin and its 1-N-acylated derivative” (Zaidan Hojin Biseibutsu Kagaku Kenkyu Kai, priority 1982, dated 1984).
